Calls of active or inactive are those of the source. The calls are words filed in the database; no cut-off is given here. Square brackets hold non-standard residues; d marks the D form. Peptide text beside a SMILES is read from it. Phe(3,4-Cl2) = N[C@@H](Cc1ccc(Cl)c(Cl)c1)C(=O)O; Phe(4-Cl) = N[C@@H](Cc1ccc(Cl)cc1)C(=O)O; pT = C[C@@H](OP(=O)(O)O)[C@H](N)C(=O)O
What was measured:
[1] = target: Serine/threonine-protein kinase PLK3 (Homo sapiens, UniProt Q9H4B4); experiment: Inhibition of FITC-GPLATSpTPKNG-OH binding to Plk3 PBD (unknown origin) after 30 mins by fluorescence polarization assay
Sequence of Serine/threonine-protein kinase PLK3 (Q9H4B4 whole entry): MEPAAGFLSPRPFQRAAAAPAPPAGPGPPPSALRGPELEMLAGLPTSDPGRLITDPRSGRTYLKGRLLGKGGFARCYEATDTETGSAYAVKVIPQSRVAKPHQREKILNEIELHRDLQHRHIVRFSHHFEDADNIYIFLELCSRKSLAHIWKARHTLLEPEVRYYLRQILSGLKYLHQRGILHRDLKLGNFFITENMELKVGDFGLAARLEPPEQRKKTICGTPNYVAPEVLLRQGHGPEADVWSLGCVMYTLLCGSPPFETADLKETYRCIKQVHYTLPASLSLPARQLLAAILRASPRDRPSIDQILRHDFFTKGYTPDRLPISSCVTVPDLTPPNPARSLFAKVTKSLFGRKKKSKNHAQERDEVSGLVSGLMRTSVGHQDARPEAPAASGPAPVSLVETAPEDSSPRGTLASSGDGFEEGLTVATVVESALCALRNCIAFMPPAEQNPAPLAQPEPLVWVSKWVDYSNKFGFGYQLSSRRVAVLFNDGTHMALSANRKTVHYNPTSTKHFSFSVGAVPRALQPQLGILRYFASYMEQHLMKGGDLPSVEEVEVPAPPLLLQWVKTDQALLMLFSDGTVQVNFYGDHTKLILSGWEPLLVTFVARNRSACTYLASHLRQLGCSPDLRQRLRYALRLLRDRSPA

HeLa [2] = experiment: Induction of apoptosis in human HeLa cells assessed as viable cells at 10 uM after 48 hrs by Annexin V-FITC/propidium iodide staining based flow cytometry (reference value: 39.5%); assay type: functional; conditions: read-out: Activity
HeLa [3] = experiment: Induction of apoptosis in human HeLa cells assessed as early apoptotic cells at 20 uM after 48 hrs by Annexin V-FITC/propidium iodide staining based flow cytometry (reference value: 0%); assay type: functional
HeLa [4] = experiment: Induction of apoptosis in human HeLa cells assessed as viable cells at 5 uM after 48 hrs by Annexin V-FITC/propidium iodide staining based flow cytometry (reference value: 39.5%); assay type: functional; conditions: read-out: Activity
HeLa [5] = experiment: Induction of apoptosis in human HeLa cells assessed as late apoptotic cells at 10 uM after 48 hrs by Annexin V-FITC/propidium iodide staining based flow cytometry (reference value: 0%); assay type: functional
HeLa [6] = experiment: Induction of apoptosis in human HeLa cells assessed as necrotic cells at 5 uM after 48 hrs by Annexin V-FITC/propidium iodide staining based flow cytometry (reference value: 0.5%); assay type: functional
HeLa [7] = experiment: Induction of apoptosis in human HeLa cells assessed as necrotic cells at 10 uM after 48 hrs by Annexin V-FITC/propidium iodide staining based flow cytometry (reference value: 0.5%); assay type: functional
HeLa [8] = experiment: Induction of apoptosis in human HeLa cells assessed as early apoptotic cells at 10 uM after 48 hrs by Annexin V-FITC/propidium iodide staining based flow cytometry (reference value: 0%); assay type: functional
HeLa [9] = experiment: Induction of apoptosis in human HeLa cells assessed as necrotic cells at 20 uM after 48 hrs by Annexin V-FITC/propidium iodide staining based flow cytometry (reference value: 0.5%); assay type: functional
HeLa [10] = experiment: Induction of apoptosis in human HeLa cells assessed as early apoptotic cells at 5 uM after 48 hrs by Annexin V-FITC/propidium iodide staining based flow cytometry (reference value: 0%); assay type: functional
HeLa [11] = experiment: Induction of apoptosis in human HeLa cells assessed as late apoptotic cells at 5 uM after 48 hrs by Annexin V-FITC/propidium iodide staining based flow cytometry (reference value: 0%); assay type: functional
HeLa [12] = experiment: Cell cycle arrest in human HeLa cells assessed as accumulation at G2/M phase at 5 to 20 uM after 48 hrs by propidium iodide staining based flow cytometry; assay type: functional
HeLa [13] = experiment: Induction of apoptosis in human HeLa cells assessed as late apoptotic cells at 20 uM after 48 hrs by Annexin V-FITC/propidium iodide staining based flow cytometry (reference value: 0%); assay type: functional
[14] = target: Serine/threonine-protein kinase PLK2 (Homo sapiens, UniProt Q9NYY3); experiment: Inhibition of FITC-GPMQTSpTPKNG-OH binding to Plk2 PBD (unknown origin) after 30 mins by fluorescence polarization assay
Sequence of Serine/threonine-protein kinase PLK2 (Q9NYY3 whole entry): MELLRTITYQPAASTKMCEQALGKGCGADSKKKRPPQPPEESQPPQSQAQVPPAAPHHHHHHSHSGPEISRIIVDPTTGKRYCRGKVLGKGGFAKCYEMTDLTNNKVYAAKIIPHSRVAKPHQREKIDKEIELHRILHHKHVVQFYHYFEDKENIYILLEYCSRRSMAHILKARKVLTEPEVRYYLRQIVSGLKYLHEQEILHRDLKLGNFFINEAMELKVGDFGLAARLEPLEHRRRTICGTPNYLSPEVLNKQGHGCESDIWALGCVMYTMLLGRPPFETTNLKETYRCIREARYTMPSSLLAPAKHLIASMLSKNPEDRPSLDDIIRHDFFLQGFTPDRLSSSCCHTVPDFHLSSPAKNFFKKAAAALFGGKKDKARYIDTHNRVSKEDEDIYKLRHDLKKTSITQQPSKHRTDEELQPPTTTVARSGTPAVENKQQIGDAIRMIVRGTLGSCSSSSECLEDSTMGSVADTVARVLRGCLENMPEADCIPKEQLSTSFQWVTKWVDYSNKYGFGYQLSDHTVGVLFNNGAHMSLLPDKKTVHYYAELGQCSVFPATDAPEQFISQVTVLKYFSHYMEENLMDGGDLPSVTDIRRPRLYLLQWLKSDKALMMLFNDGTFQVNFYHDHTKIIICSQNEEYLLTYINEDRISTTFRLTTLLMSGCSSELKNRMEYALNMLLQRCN

HeLa [15] = experiment: Induction of apoptosis in human HeLa cells assessed as viable cells at 20 uM after 48 hrs by Annexin V-FITC/propidium iodide staining based flow cytometry (reference value: 39.5%); assay type: functional; conditions: read-out: Activity
HeLa [16] = experiment: Induction of apoptosis in human HeLa cells assessed as PARP cleavage after 48 hrs by Western blot analysis; assay type: functional, cell-based
HeLa [17] = experiment: Cell cycle arrest in human HeLa cells assessed as decrease in G2/M phase at 20 uM after 12 hrs by propidium iodide staining based flow cytometry relative to control; assay type: functional
HeLa [18] = experiment: Cell cycle arrest in human HeLa cells assessed as decrease in S phase at 5 to 20 uM after 48 hrs by propidium iodide staining based flow cytometry; assay type: functional
HeLa [19] = experiment: Decrease in CDK1 expression level in human HeLa cells after 48 hrs by Western blot analysis; assay type: functional, cell-based
HeLa [20] = experiment: Cell cycle arrest in human HeLa cells assessed as decrease in G0/G1 phase at 5 to 20 uM after 48 hrs by propidium iodide staining based flow cytometry; assay type: functional
HeLa [21] = experiment: Induction of morphological changes in human HeLa cells assessed as chromatin condensation at 5 to 20 uM after 48 hrs by Hoechst 33258 staining based fluorescence microscopy; assay type: functional, cell-based
HeLa [22] = experiment: Induction of apoptosis in human HeLa cells assessed as caspase 3 cleavage after 48 hrs by Western blot analysis; assay type: functional, cell-based
HeLa [23] = experiment: Cell cycle arrest in human HeLa cells assessed as decrease in G2/M phase at 20 uM after 24 hrs by propidium iodide staining based flow cytometry relative to control; assay type: functional; parameters: scale not given: the % may be the effect or the level left
HeLa [24] = experiment: Cell cycle arrest in human HeLa cells assessed as decrease in G2/M phase at 20 uM after 48 hrs by propidium iodide staining based flow cytometry relative to control; assay type: functional; parameters: scale not given: the % may be the effect or the level left
HeLa [25] = experiment: Induction of apoptosis in human HeLa cells after 48 hrs by Annexin V-FITC/propidium iodide staining based flow cytometry; assay type: functional, cell-based
HeLa [26] = experiment: Decrease in cyclin B1 expression level in human HeLa cells after 48 hrs by Western blot analysis; assay type: functional, cell-based
HeLa [27] = experiment: Induction of morphological changes in human HeLa cells at 5 to 20 uM after 48 hrs by Hoechst 33258 staining based fluorescence microscopy; assay type: functional, cell-based
HeLa [28] = experiment: Induction of morphological changes in human HeLa cells assessed as nuclei fragmentation at 5 to 20 uM after 48 hrs by Hoechst 33258 staining based fluorescence microscopy; assay type: functional, cell-based
[29] = Drug uptake in nucleus of human HeLa cells after 3 hrs by DAPI staining based confocal laser scanning microscopy; assay type: ADME, subcellular

For `CC[C@H](C)[C@H](NC(=O)[C@H](C)NC(=O)[C@@H](NC(=O)[C@H](CO)NC(=O)[C@H](Cc1cnc[nH]1)NC(=O)[C@H](CC(C)C)NC(=O)[C@@H]1CCCN1C(=O)[C@@H]1CCCN1C(=O)[C@H](CC(=O)O)NC(=O)[C@H](Cc1ccccc1)NC(C)=O)[C@@H](C)OP(=O)(O)O)C(=O)N[C@@H](Cc1ccc(O)cc1)C(=O)N[C@@H](C)C(=O)N[C@@H](CC(N)=O)C(N)=O` (Ac-FDPPLHS[pT]AIYAN-NH2), the IC50 [1] was “Not Active”, the viability at 10 µM (HeLa [2]) was 100% and the Activity (HeLa [3]) was 0%. For the same compound, the viability at 5 µM (HeLa [4]) was 100%, the Activity (HeLa [5]) was 0% and the Activity (HeLa [6]) was 0%. For the same compound, the Activity (HeLa [7]) was 0%, the Activity (HeLa [8]) was 0% and the Activity (HeLa [9]) was 0%. The Activity (HeLa [10]) was 0%, the Activity (HeLa [11]) was 0% and the Activity (HeLa [12]) was “inactive”. For the same compound, the Activity (HeLa [13]) was 0%, the IC50 ([14]; read-out: IC50) was 13.4 µM and the viability at 20 µM (HeLa [15]) was 100%.

In the case of `CC[C@H](C)[C@H](NC(=O)[C@H](C)NC(=O)[C@@H](NC(=O)[C@H](CO)NC(=O)[C@H](Cc1cnc[nH]1)NC(=O)[C@H](CC(C)C)NC(=O)[C@@H]1CCCN1C(=O)[C@@H]1CCCN1C(=O)[C@H](CC(=O)O)NC(=O)[C@H](Cc1ccc(OC)cc1)NC(=O)[C@@H](NC(=O)[C@H](CCC(N)=O)NC(C)=O)[C@@H](C)O)[C@@H](C)OP(=O)(O)O)C(=O)N[C@@H](Cc1ccc(O)cc1)C(=O)N[C@@H](C)C(=O)N[C@@H](CC(N)=O)C(N)=O` (Ac-QTY(Me)DPPLHS[pT]AIYAN-NH2), the IC50 [1] is reported as “Not Active” and the IC50 [14] is reported as “Not Active”.

With `CC[C@H](C)[C@H](NC(=O)[C@H](C)NC(=O)[C@@H](NC(=O)[C@H](CO)NC(=O)[C@H](Cc1cnc[nH]1)NC(=O)[C@H](CC(C)C)NC(=O)[C@@H]1CCCN1C(=O)[C@@H]1CCCN1C(=O)[C@H](CC(=O)O)NC(=O)[C@H](Cc1ccc(Cl)c(Cl)c1)NC(=O)[C@@H](NC(=O)[C@H](CCC(N)=O)NC(C)=O)[C@@H](C)O)[C@@H](C)OP(=O)(O)O)C(=O)N[C@@H](Cc1ccc(O)cc1)C(=O)N[C@@H](C)C(=O)N[C@@H](CC(N)=O)C(N)=O` (Ac-QT[Phe(3,4-Cl2)]DPPLHS[pT]AIYAN-NH2) the viability at 10 µM (HeLa [2]) was 68.6%, the Activity (HeLa [16]) was “Active” and the Activity (HeLa [17]) was “inactive”. For the same compound, the Activity (HeLa [3]) was 46.9%, the Activity (HeLa [18]) was “Active” and the Activity (HeLa [19]) was “Dose-dependent effect”. The viability at 5 µM (HeLa [4]) was 83.7%, the Activity (HeLa [20]) was “Active” and the Activity (HeLa [5]) was 5.9%. For the same compound, the Activity (HeLa [6]) was 0.2%, the Activity (HeLa [21]) was “Active” and the Activity (HeLa [7]) was 0.2%. For the same compound, the Activity (HeLa [8]) was 25.2%, the Activity (HeLa [22]) was “Active” and the Activity (HeLa [9]) was 0.1%. For the same compound, the Activity (HeLa [23]) was 40%, the Activity (HeLa [10]) was 14.6% and the Activity (HeLa [11]) was 1.6%. The Activity (HeLa [24]) was 71%, the Activity (HeLa [12]) was 24.37 - 67.66% and the Activity (HeLa [25]) was “Dose-dependent effect”. The Activity (HeLa [26]) was “Dose-dependent effect”, the Activity (HeLa [13]) was 2.1% and the Activity (HeLa [27]) was “Active”. The IC50 [14] was “Not Active”, the Activity (HeLa [28]) was “Active” and the viability at 20 µM (HeLa [15]) was 50.8%. The Drug uptake [29] was “Active”.

With `CC[C@H](C)[C@H](NC(=O)[C@H](C)NC(=O)[C@@H](NC(=O)[C@H](CO)NC(=O)[C@H](Cc1cnc[nH]1)NC(=O)[C@H](CC(C)C)NC(=O)[C@@H]1CCCN1C(=O)[C@@H]1CCCN1C(=O)[C@H](CC(=O)O)NC(=O)[C@H](Cc1ccc(Cl)cc1)NC(=O)[C@@H](NC(=O)[C@H](CCC(N)=O)NC(C)=O)[C@@H](C)O)[C@@H](C)OP(=O)(O)O)C(=O)N[C@@H](Cc1ccc(O)cc1)C(=O)N[C@@H](C)C(=O)N[C@@H](CC(N)=O)C(N)=O` (Ac-QT[Phe(4-Cl)]DPPLHS[pT]AIYAN-NH2) the IC50 [1] was “Not Active” and the IC50 [14] was “Not Active”.
